Experimental data published in patent US8178506B2, “Oligomeric compounds and compositions for use in modulation of small non-coding RNAs” (Regulus Therapeutics Inc., priority 2003, dated 2012).
“Also recorded” adds a separate entry of the source. In the oligonucleotide strings, read from the 5' end, every base follows the letter of its sugar. An asterisk marks phosphorothioate; unmarked linkages are phosphodiester. Other units and linkages are bracketed, terminal groups are in braces. A string of capitals states the bases alone. e = 2'-O-(2-methoxyethyl) (MOE); [5mC] = 5-methylcytosine

System: mir-21 pri-miRNA
Test: mir-21 pri-miRNA expression in HeLa cells (real-time RT-PCR)
Format: cell-based, human
Details: for levels of the mir-21 pri-miRNA molecule: HeLa, 100 nM
Protocol: In one embodiment, the expression of mir-21 (noted to be expressed at high levels in HeLa cells) was assessed in cells treated with oligomeric compounds. Using the transfection methods previously described, HeLa cells were treated with 100 nM of the uniform 2′-MOE oligomeric compound ISIS Number 327917 (SEQ ID NO: 335) targeting the mir-21 mature miRNA. Total RNA was isolated by lysing cells in 1 mL TRIZOL™ (Invitrogen) using the manufacturer's recommended protocols. […] Real-time RT-PCR analysis was also performed on HeLa cells treated with ISIS 327917 using a primer/probe set specific for the mir-21 pri-miRNA molecule [forward primer=ISIS 339332 ([…]; herein incorporated as SEQ ID NO.: 911), reverse primer-ISIS 339333 (TCGACTGGTGTTGCCATGA; herein incorporated as SEQ ID NO.: 912), and probe=ISIS 339334 ([…]; herein incorporated as SEQ ID NO.: 913)]. Total RNA was quantified using RiboGreen™ RNA quantification reagent (Molecular Probes, Inc. Eugene, Oreg.), expression levels observed for the target were normalized to 5.8S rRNA, and values were expressed relative to an untreated control (UTC).
Using the real-time RT-PCR methods, the expression levels of the mir-21 pri-miRNA were compared in HeLa cells treated with this nested series of uniform 2′-MOE oligomeric compounds, targeting and spanning the entire length of the mir-21 pri-miRNA. ISIS Number 358768 (SEQ ID NO: 918) targets a region flanking the predicted 5′ Drosha cleavage site in the mir-21 pri-miRNA. ISIS Number 358777 (SEQ ID NO: 927) targets a region spanning the 3′ Drosha cleavage site in the mir-21 pri-miRNA. ISIS 358779 (SEQ ID NO: 929) targets a region flanking the predicted 3′ Drosha cleavage site in the mir-21 pri-miRNA. Additionally, oligomeric compounds ISIS 327917 (SEQ ID NO: 335), a uniform 2′-MOE compound targeting the mature mir-21 miRNA, and ISIS 345382 ([…]; SEQ ID NO: 335), a 5-10-7 phosphorothioate 2′-MOE gapmer targeting mir-21, were tested for comparison. Oligomeric compound ISIS 327863 ([…]; herein incorporated as SEQ ID NO: 936), a phosphorothioate 5-10-52′-MOE gapmer, was used as scrambled control. […] Total RNA was isolated by lysing cells in 1 mL TRIZOL™ (Invitrogen) using the manufacturer's recommended protocols. real-time RT-PCR analysis was performed using the primer/probe set specific for the mir-21 pri-miRNA molecule [forward primer=ISIS 339332 (SEQ ID NO.: 911), reverse primer-ISIS 339333 (SEQ ID NO.: 912), and probe=ISIS 339334 (SEQ ID NO.: 913)]. Total RNA was quantified using RiboGreen™ RNA quantification reagent (Molecular Probes, Inc. Eugene, Oreg.), expression levels observed for each target were normalized to 5.8S rRNA, and values were expressed relative to the untreated control (UTC). Effects on expression of the mir-21 pri-miRNA molecule resulting from treatment of HeLa cells with these uniform 2′-MOE oligomeric compounds is expressed as a percentage of RNA levels in untreated control cells.

| Substance | levels of the mir-21 pri-miRNA molecule | mir-21 pri-miRNA levels, dose response (HeLa, 25, 50, 100 and 200 nM) |
| --- | --- | --- |
| ISIS 358779: uniform 2′-MOE PS; SEQ ID NO: 929; region flanking 3′ Drosha cleavage site of mir-21 pri-miRNA (antisense eG*eG*eT*e[5mC]*eA*eG*eA*eT*eG*eA*eA*eA*eG*eA*eT*eA*e[5mC]*e[5mC]*eA*eA) [uniform 2′-MOE PS; region flanking 3′ Drosha cleavage site of mir-21 pri-miRNA] | stimulate an increase in levels of the mir-21 pri-miRNA molecule; also recorded: stimulate the greatest increases in expression of the mir-21 pri-miRNA | dose-responsive induction of mir-21 pri-miRNA levels |
| ISIS 358780: uniform 2′-MOE PS; targets mir-21 pri-miRNA (antisense eA*eA*e[5mC]*eA*eT*eT*eG*eG*eA*eT*eA*eT*eG*eG*eA*eT*eG*eG*eT*e[5mC]) | stimulate an increase in levels of the mir-21 pri-miRNA molecule |  |
| ISIS 358784: uniform 2′-MOE PS; targets mir-21 pri-miRNA (antisense e[5mC]*eG*eA*e[5mC]*eA*eA*eG*eG*eT*eG*eG*eT*eA*e[5mC]*eA*eG*e[5mC]*e[5mC]*eA*eT) | stimulate an increase in levels of the mir-21 pri-miRNA molecule |  |
| ISIS 358785: uniform 2′-MOE PS; targets mir-21 pri-miRNA (antisense eG*eA*eA*eA*eG*eA*eT*eA*e[5mC]*e[5mC]*eA*eA*eA*eA*eT*eG*eT*e[5mC]*eA*eG) | stimulate an increase in levels of the mir-21 pri-miRNA molecule |  |
